How the values were obtained:
[1] = Blood chemistry panel (Example 1); assay type: in vivo, SCID/Beige mice; settings: 20 mg/kg daily i.p.
Description: After 8 weeks of treatment with either the vehicle or Bay, plasma chemistry was analyzed. Specifically, 100 μL of plasma was transferred into the Comprehensive Diagnostic Profile Rotor (#500-1038, Abaxis, Union City, CA, USA). Subsequently, the levels of glucose, creatinine, BUN, phosphorus, sodium, albumin, alkaline phosphatase, serum glutamic pyruvic transaminase (SGPT; ALT), total protein, globulin, total bilirubin, and amylase were assessed using the VetScan VS2 chemistry analyzer (Abaxis, Union City, CA, USA) as previously described.

fibroid xenografts [2] = experiment: Immunoblotting of fibroid xenografts (Example 1); assay type: in vivo, SCID/Beige mice; settings: 20 mg/kg daily, 8 weeks
Text: Protein extracted from the xenografts underwent immunoblotting as previously described. Primary antibodies targeting COL3A1, FN1, SPARC, TDO2, and Cleaved Caspase 3 were purchased from Proteintech Group, Inc. (Chicago, IL, USA). Band densities of specific proteins were quantified using the Image J program (http://imagej.nih.gov/ij/), and normalized to a Ponceau S staining band on the membrane. Results were expressed as means±SEM, and are presented as ratios relative to the control group, designated as 1.

fibroid xenografts [3] = experiment: Histology and immunohistochemistry of xenografts (Example 2); assay type: in vivo, SCID/Beige mice; settings: 5 mg/kg, 8 weeks
Text: After fixation with 4% paraformaldehyde and routine dehydration, a portion of xenograft samples were embedded in paraffin. To evaluate histologic characteristics, 5-μm-thick paraffin sections of xenografts were stained with hematoxylin and eosin (H-3502, Vector Laboratories, Inc.) and Masson's trichrome stain (HT15-1 KT, Sigma-Aldrich) according to the manufacturer's instructions.
For Immunohistochemistry, the xenografts were fixed with 4% paraformaldehyde in PBS, and subsequently transferred to PBS containing 30% sucrose (wt/vol) until equilibrated in cold (4° C.). After fixation, 5-μm-thick paraffin sections were treated three times with Histo-Clear™ (National Diagnostics, Atlanta, GA) for 5 min, and rehydrated by a sequential ethanol wash, and then incubated in target retrieval solution (Dako, Carpinteria, CA) in a microwave for 10 min in order to retrieve the antigens. For blocking, tissues were incubated for 10 minutes with 3% solution of H2O2 followed by incubation with PBS-5% normal goat serum-0.2% Triton X-100. Tissue sections were incubated with primary antibody rabbit anti-Ki67 (dilution 1:250, 27309-1-AP, Proteintech Group, Inc), rabbit anti-cleaved caspase-3 (dilution 1:50, #9664, Cell Signaling Technology), rabbit anti-CCND1 (dilution 1:50, #55506, Cell Signaling Technology) and mouse anti-E2F1 (dilution 1:50, sc-251, Santa Cruz Biotechnology, Inc.) overnight at 4° C. in a humidified chamber. The antigens were then visualized using biotinylated antibodies and streptavidin, conjugated with horseradish peroxidase. Control sections were incubated with the secondary antibody, with replacement of primary antibody with the dilution reagent (Dako). Diaminobenzidine (Dako) which served as the substrate. […] Immunostained sections were examined under a microscope (Olympus IX83; Olympus Surgical Technologies America) and five representative images of each slide were quantitatively analyzed with the use of Halo software (Indica Labs Inc.) and were averaged for comparative analysis between vehicle and […] treatment groups in a blinded fashion.

[4] = test system: primary fibroid smooth muscle cells; settings: refs [10, 93]; cited from earlier work
human fibroid xenograft = experiment: Human fibroid xenograft mouse model, tumor weight (Example 1); assay type: in vivo, ovariectomized CB-17 SCID/Beige mice; settings: 20 mg/kg daily i.p., two months (8 weeks), vs matched vehicle
Text: Portions of intramural uterine fibroids (2-5 cm diameter) were obtained from hysterectomies performed at Harbor-UCLA Medical Center for symptomatic fibroids (n=10). Prior approval was secured from the Institutional Review Board (18CR-31752-01 R) at the Lundquist Institute. Tissues were exclusively sourced from premenopausal patients who had not been treated with hormonal medications for at least 3 months before surgery. The fibroids used in this study were sourced from African American (n=2) and Hispanic (n=8) women aged between 35-50 years (mean 43±4.8 years). The MED12 mutation status of all fibroids was determined by PCR amplification and Sanger sequencing (Laragen Inc., Culver City, CA, USA). […] Informed consent was obtained from all participants. A segment of each tumor was allocated for in vivo studies, and the remaining tissues were promptly snap-frozen and stored in liquid nitrogen for further analysis as previously described. This selection process for tumors was aimed at minimizing variance among fibroids.

[5] = Tolerability and body weight of xenograft mice (Example 2); settings: 5 mg/kg/three times per week
Description: 9-12-weeks-old female ovariectomized SCID/Beige mice (Charles River Laboratories) were implanted with pellets (Innovative Research of America) containing estradiol (0.05 mg/90 d release) and progesterone (25 mg/60 d release) as previously reported (4, 5). […] After two months of treatment animals were sacrificed, and blood was obtained by cardiac puncture.
Briefly, freshly obtained fibroids from hysterectomies was cut aseptically into small pieces (4-5-mm3 cubes) using a razor blade and weighed. Equal weights of the explants from the same patient were implanted in the flank of SCID mice. […] After two months of treatment animals were sacrificed, and blood was obtained by cardiac puncture.

fibroid xenografts [6] = experiment: Xenograft mouse fibroid model, tumor weight (Example 2); assay type: in vivo, ovariectomized CB-17 SCID/Beige mice; settings: 5 mg/kg i.p. (every other day / three times per week), two months, vs matched controls
Text: Portions of uterine fibroids (intramural, 2-5 cm in diameters) (n=13) were obtained from patients at Harbor-UCLA Medical Center. Prior approval from the Institutional Review Board (18CR-31752-01 R) at the Lundquist Institute was obtained. Informed consent was obtained from all the patients participating in the study who were not taking any hormonal medications for at least 3 months prior to surgery. The fibroids used in this study were from African Americans (n=3), Hispanics (n=9) and Asians (n=1) women aged 35-57 years (mean 46±6.5 years). The MED12 mutation status of all fibroids was determined by PCR amplification and Sanger sequencing (Laragen Inc. Culver City, CA). […] The missense mutations in exon 2 included c.130G>A (p.Gly44Ser) (n=4), c.131 G>A (p.Gly44Asp) (n=2) and c.131 G>T (p.Gly44Val) (n=1). The tissues were snap frozen and stored in liquid nitrogen for further analysis as previously described (2, 3).
Portions of liver, kidney, heart were dissected and frozen.

Cc1ccc(S(=O)(=O)/C=C/C#N)cc1 [Bay 11-7082]
changes in blood chemistry including liver, kidney and pancreatic function ([1]; 8 weeks): no changes
Albumin (mean ± SEM) ([1]; plasma after 8 weeks): 3.5 ± 0.14 g/dL
Alkaline phosphatase (mean ± SEM) ([1]; plasma after 8 weeks): 91.9 ± 20.05 U/l
Amylase (mean ± SEM) ([1]; plasma after 8 weeks): 643.0 ± 36.82 U/l
BUN (mean ± SEM) ([1]; plasma after 8 weeks): 27.1 ± 5.75 mg/dL
Creatinine (mean ± SEM) ([1]; plasma after 8 weeks): 0.4 ± 0.03 mg/dL
Globulin (mean ± SEM) ([1]; plasma after 8 weeks): 1.1 ± 0.24 g/dL
Glucose (mean ± SEM) ([1]; plasma after 8 weeks): 261.0 ± 14.63 mg/dL
Phosphorus (mean ± SEM) ([1]; plasma after 8 weeks): 10.1 ± 0.53 mg/dL
SGPT (ALT) (mean ± SEM) ([1]; plasma after 8 weeks): 54.5 ± 8.71 U/l
Sodium (mean ± SEM) ([1]; plasma after 8 weeks): 155.3 ± 1.35 mEq/l
Total bilirubin (mean ± SEM) ([1]; plasma after 8 weeks): 0.3 ± 0.04 mg/dL
Total protein (mean ± SEM) ([1]; plasma after 8 weeks): 4.6 ± 0.16 g/dL
protein abundance of COL3A1, FN1, SPARC, TDO2 (Western blot) (fibroid xenografts [2]): inhibited
cell proliferation: nuclei staining for Ki67, CCND1 and E2F1 (fibroid xenografts [3]): reduced number of nuclei staining
staining for collagen (Masson's trichrome, blue stain) (fibroid xenografts [3]): significant decrease
staining of cleaved caspase 3 (apoptosis) (fibroid xenografts [3]): no significant change
expression of miR-29c and miR-200c [4]: induced
reduction of tumor weight (human fibroid xenograft): 50%
effect on body weight [5]: no significant effects
body weight ([5]; vehicle 26.16g±0.49): 25.42 g
reduction in tumor weight (fibroid xenografts [6]): 40%

Reference: US20240415801A1, “Methods and Compositions for Treating Fibroids” (Lundquist Institute for Biomedical Innovation at …, priority 2023, published 2024)
